Literature values, collected in US11523999B2, “Compositions comprising a fatty aged oil mixture and a free fatty acid, and methods and uses thereof” (Pronova Biopharma Norge AS, priority 2009, dated 2022).
“And” between values parts separate entries of the source, which are not always exact repeats. Equal entries are not always repeated.

Conditions: Other surfactants, Table 7

In order of falling “HBL Value”:
1. CCCCCCCCCCCCOS(=O)(=O)[O-].[Na+] [Sodium lauryl sulphate]  40
2. CCCCCCCCCCCCCCCC[N+](C)(C)C.[Br-] [Cetrimonium bromide]  23.3
3. CCCCCCCCCCCC(=O)OCCOCCO [Diethylene glycol monolaurate]  6.1
4. Propylene glycol monostearate  3.4
5. CCCCCCCCCCCCCCCCCC(=O)OCCOC(=O)CCCCCCCCCCCCCCCCC [Ethylene glycol distearate]  1.5

For CCCCCCCCCCCCCCCCCC(=O)OCC(O)CO (stereo not drawn) [Glyceryl monostearate], the “HBL Value” is listed as 3.3 and 3.8.

Same assay, conditions: Span surfactants, Table 3

In order of falling “HLB Value”:
1. sorbitan monopalmitate [Span ® 40]  6.7
2. sorbitan monostearate [Span ® 60]  4.7
3. sorbitan monooleate [Span ® 80]  4.3
